Experiments:
Pliss' lymphosarcoma = assay: Tumor necrosis after photodynamic therapy, Pliss' lymphosarcoma; assay type: in vivo; details: rats, photosensitizer 2.5 mg/kg, laser 660 nm, 50 J/cm^2
Experimental: The studies were performed on white not-inbred laboratory rats having subcutaneously implanted tumors (Pliss' lymphosarcoma). The dose of the administered photosensitizer was 2.5 mg/kg. The necrosis area was estimated based on the functional condition of the tumor's vascular system following laser irradiation (660 nm) at the radiation dose of 50 J/cm^2, when accumulation of the photosensitizer was the highest.
After 24 hours since the photodynamic therapy, the animals were intravenously given a solution of Evans blue in physiologic saline at the dose of 1.0 ml/100 g of body weight.

[1] = Light absorption spectra and complex formation in phosphate buffer; assay type: physicochemical; details: phosphate buffer 0.05M, pH 8.5, chlorin p6 1.9·10^−5M
Text: The absorption spectra of the above-obtained associations of polyvinylpyrrolidone with chlorin p6 in the phosphate buffer (0.05M, pH 8.5) are shown on FIG. 1 for the following chlorin p6/polyvinylpyrrolidone ratios (by weight): (1) 1:1; (2) 1:15; (3) 1:40; (4) 1:200; and (5) 1:1000. The concentration of chlorin p6 was 1.9·10^−5M in all investigated solutions.
The chlorin p6-polyvinylpyrrolidone complex has an absorption maximum in the long-wave region of visible light, and this maximum is shifted towards longer wavelengths (664 nm) compared to free chlorin p6, which has an absorption maximum at 656 nm. Therefore, the use of the association according to the invention as a photosensitizer allows for deeper penetration of radiation into biological tissues, which allows for treating solid tumors and/or deeply located lesions.
Formation of the complex of polyvinylpyrrolidone with chlorin p6 results in a series of changes in the absorption spectrum. […]
FIG. 2 presents the experimentally obtained percent of red shift of the absorption maximum of the complex in relation to the content of polyvinylpyrrolidone. […] The spectra were recorded for a series of the solutions of the complex in the phosphate buffer (pH 8.5) at the chlorin p6 concentration of 1.9·10^−5M.

[2] = tested on: Walker-256 carcinosarcoma; assay: Inhibition of neoplasm's growth, Walker-256 carcinosarcoma; assay type: in vivo, rats; details: 2.5 mg/kg intraperitoneally, 200 J/cm^2
Experimental: The use of the association according to the invention allows to achieve a high level of the tumor growth inhibition. In order to confirm this effect, the studies were performed using white rats with implanted neoplasms (Walker-256 carcinosarcoma). A solution of the photosensitizer was administered intraperitoneally at doses of 2.5 mg/kg and the tumor was […] at the radiation dose of 200 J/cm^2. The observation was continued for 21 days following the therapy. FIG. 3 and Table 7 show the dynamics of changes of the absolute rate of the tumor growth, resulting from the use of the association according to the invention (1:15) as well as free chlorin p6. The control group consisted of untreated animals.

[3] = reference standard; cited from earlier work

Row | SMILES | Depth of necrosis (Pliss' lymphosarcoma) | Necrosis area (Pliss' lymphosarcoma) | Absorption maximum in the long-wave region of visible light [1] | Neoplasm's growth ([2]; 3 days after photodynamic therapy) | Neoplasm's growth ([2]; 7 days after photodynamic therapy) | Neoplasm's growth ([2]; 10 days after photodynamic therapy) | Neoplasm's growth ([2]; 14 days after photodynamic therapy) | Neoplasm's growth ([2]; 21 days after photodynamic therapy) | Resumption of tumor growth following the therapy ([2]; observation 21 days) | Quantum yield of the singlet-state oxygen (φλ) of the reference solution [3]
1 | C=Cc1c(C)c2cc3nc(c(C(=O)O)c4[nH]c(cc5nc(cc1[nH]2)C(C)=C5CC)c(C)c4C(=O)O)[C@@H](CCC(=O)O)[C@@H]3C (relative stereo) [chlorin p6, 13-carboxy-17-[2-carboxyethyl]-15-carboxy-17,18-trans-dihydro-3-vinyl-8-ethyl-2,7,12,18-tetramethylporphyrin] | 7 mm | 46.3% | 656 nm | 0% | 0% | 3% | 8% | 12% | the tumor growth resumes after 10 days | –
2 | O=S(=O)([O-])c1ccc(-c2c3nc(c(-c4ccc(S(=O)(=O)[O-])cc4)c4ccc([nH]4)c(-c4ccc(S(=O)(=O)[O-])cc4)c4nc(c(-c5ccc(S(=O)(=O)[O-])cc5)c5ccc2[nH]5)C=C4)C=C3)cc1.[Na+].[Na+].[Na+].[Na+] [TSFP, tetrasodium phenylporphyrintetrasulfonate] | – | – | – | – | – | – | – | – | – | 0.7

Source: patent publication US20050265954A1, “Novel association, a method of its preparation and its uses” (ADAMED, Sp. z.o.o., priority 2004, published 2005)
